We go through two molecules from ChEMBL document CHEMBL1159148, “Myo-inositol 1,4,6-trisphosphate: A new synthetic Ca2+-mobilising inositol phosphate” (Bioorg Med Chem Lett, 1993).

The species entered for this experiment is Oryctolagus cuniculus. The experiment is described as follows: Compound was evaluated for its ability to release [Ca2+] from permeabilised rabbit platelets. Type of experiment: functional.

Regarding `O=P(O)(O)O[C@@H]1[C@H](O)[C@H](O)[C@@H](OP(=O)(O)O)[C@H](OP(=O)(O)O)[C@H]1O` (stereo in doubt; form 1) [INS(1,4,5)P3], the midpoint of the response, the EC50, lay at 180 nM.

As for `O=P(O)(O)O[C@@H]1[C@H](O)[C@H](O)[C@@H](OP(=O)(O)O)[C@H](OP(=O)(O)O)[C@H]1O` (stereo in doubt; form 2) [INS(1,4,5)P3], the midpoint of the response, the EC50, lay at 2070 nM.
